From the supplement of paper PMC13207355

How the values were obtained:
Conditions in all cases: exposure time: 72 h
E57 [1] = patient-derived glioblastoma stem cells of mesenchymal subtype; test: surviving fraction (nuclei count normalised to DMSO); higher = more cells surviving (less toxic)
FT3469 [2] = normal neural stem cell line; test: as above
E34 [3] = patient-derived glioblastoma stem cells of proneural subtype; test: as above
E28 [4] = patient-derived glioblastoma stem cells of classical subtype; test: as above
E13 [5] = patient-derived glioblastoma stem cells of classical subtype; test: as above
E21 [6] = patient-derived glioblastoma stem cells of mesenchymal subtype; test: as above
E31 [7] = patient-derived glioblastoma stem cells of proneural subtype; test: as above
E57 [8] = test: phenotypic distance (Euclidean, principal components) from DMSO controls (arbitrary units); higher = stronger morphological change
FT3469 [9] = test: as above
E34 [10] = test: as above
E28 [11] = test: as above
E13 [12] = test: as above
E21 [13] = test: as above
E31 [14] = test: as above
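Throughout, for phenotypic distance (Euclidean, principal components) from DMSO controls: cell Painting imaging in 384-well plates, CellProfiler features reduced to at least 20 principal components, Euclidean distance versus same-plate DMSO vehicle wells (0.1% v/v), median over six images per well.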
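Throughout, for surviving fraction (nuclei count normalised to DMSO): nuclei counted by high-content imaging of Hoechst-stained cells in laminin-coated 384-well plates, relative to 0.1% DMSO vehicle wells, with staurosporine as cell-death control.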

C=CC(=O)Nc1cccc(Oc2nc(Nc3ccc(N4CCN(C)CC4)cc3)nc3ccsc23)c1 [Olmutinib]
Conditions	phenotypic distance	surviving fraction
E13 [5], 4.1 nM	–	0.944
E13 [5], 12.3 nM	–	0.915
E13 [5], 37 nM	–	0.963
E13 [5], 111.1 nM	–	0.967
E13 [5], 333.3 nM	–	0.965
E13 [5], 1000 nM	–	0.801
E13 [5], 3000 nM	–	0.453
E13 [12], 4.1 nM	0.908	–
E13 [12], 12.3 nM	0.809	–
E13 [12], 37 nM	2.13	–
E13 [12], 111.1 nM	1.1	–
E13 [12], 333.3 nM	0.827	–
E13 [12], 1000 nM	0.937	–
E13 [12], 3000 nM	1.92	–
E21 [6], 4.1 nM	–	0.895
E21 [6], 12.3 nM	–	0.932
E21 [6], 37 nM	–	0.932
E21 [6], 111.1 nM	–	0.759
E21 [6], 333.3 nM	–	0.873
E21 [6], 1000 nM	–	0.67
E21 [6], 3000 nM	–	0.411
E21 [13], 4.1 nM	0.923	–
E21 [13], 12.3 nM	0.831	–
E21 [13], 37 nM	0.851	–
E21 [13], 111.1 nM	3.27	–
E21 [13], 333.3 nM	1.24	–
E21 [13], 1000 nM	2.44	–
E21 [13], 3000 nM	5.22	–
E28 [4], 4.1 nM	–	0.955
E28 [4], 12.3 nM	–	0.88
E28 [4], 37 nM	–	1.02
E28 [4], 111.1 nM	–	0.954
E28 [4], 333.3 nM	–	0.885
E28 [4], 1000 nM	–	0.842
E28 [4], 3000 nM	–	0.419
E28 [11], 4.1 nM	0.675	–
E28 [11], 12.3 nM	0.862	–
E28 [11], 37 nM	0.601	–
E28 [11], 111.1 nM	0.634	–
E28 [11], 333.3 nM	0.515	–
E28 [11], 1000 nM	1.01	–
E28 [11], 3000 nM	2.28	–
E31 [7], 4.1 nM	–	0.776
E31 [7], 12.3 nM	–	0.969
E31 [7], 37 nM	–	1.01
E31 [7], 111.1 nM	–	0.698
E31 [7], 333.3 nM	–	0.856
E31 [7], 1000 nM	–	0.568
E31 [7], 3000 nM	–	0.155
E31 [14], 4.1 nM	1.5	–
E31 [14], 12.3 nM	0.605	–
E31 [14], 37 nM	0.731	–
E31 [14], 111.1 nM	1.36	–
E31 [14], 333.3 nM	0.65	–
E31 [14], 1000 nM	1.66	–
E31 [14], 3000 nM	4.05	–
E34 [3], 4.1 nM	–	0.929
E34 [3], 12.3 nM	–	0.967
E34 [3], 37 nM	–	0.814
E34 [3], 111.1 nM	–	0.994
E34 [3], 333.3 nM	–	0.857
E34 [3], 1000 nM	–	0.804
E34 [3], 3000 nM	–	0.673
E34 [10], 4.1 nM	0.793	–
E34 [10], 12.3 nM	0.977	–
E34 [10], 37 nM	0.66	–
E34 [10], 111.1 nM	0.999	–
E34 [10], 333.3 nM	0.636	–
E34 [10], 1000 nM	0.75	–
E34 [10], 3000 nM	2.02	–
E57 [1], 4.1 nM	–	0.983
E57 [1], 12.3 nM	–	1.09
E57 [1], 37 nM	–	0.983
E57 [1], 111.1 nM	–	0.915
E57 [1], 333.3 nM	–	0.958
E57 [1], 1000 nM	–	0.845
E57 [1], 3000 nM	–	0.585
E57 [8], 4.1 nM	0.67	–
E57 [8], 12.3 nM	0.94	–
E57 [8], 37 nM	0.658	–
E57 [8], 111.1 nM	2.04	–
E57 [8], 333.3 nM	0.972	–
E57 [8], 1000 nM	0.888	–
E57 [8], 3000 nM	3.89	–
FT3469 [2], 4.1 nM	–	0.879
FT3469 [2], 12.3 nM	–	0.925
FT3469 [2], 37 nM	–	0.864
FT3469 [2], 111.1 nM	–	0.916
FT3469 [2], 333.3 nM	–	0.851
FT3469 [2], 1000 nM	–	0.856
FT3469 [2], 3000 nM	–	0.722
FT3469 [9], 4.1 nM	1.28	–
FT3469 [9], 12.3 nM	1.16	–
FT3469 [9], 37 nM	1.51	–
FT3469 [9], 111.1 nM	1.24	–
FT3469 [9], 333.3 nM	1.44	–
FT3469 [9], 1000 nM	1.3	–
FT3469 [9], 3000 nM	1.91	–

CCCCCCNC(=O)n1cc(F)c(=O)[nH]c1=O [Carmofur]
Conditions	phenotypic distance	surviving fraction
E13 [5], 4.1 nM	–	0.99
E13 [5], 12.3 nM	–	1.04
E13 [5], 37 nM	–	0.909
E13 [5], 111.1 nM	–	0.986
E13 [5], 333.3 nM	–	0.963
E13 [5], 1000 nM	–	1.05
E13 [5], 3000 nM	–	0.877
E13 [12], 4.1 nM	0.618	–
E13 [12], 12.3 nM	0.582	–
E13 [12], 37 nM	0.585	–
E13 [12], 111.1 nM	0.446	–
E13 [12], 333.3 nM	0.744	–
E13 [12], 1000 nM	0.529	–
E13 [12], 3000 nM	0.786	–
E21 [6], 4.1 nM	–	0.952
E21 [6], 12.3 nM	–	0.91
E21 [6], 37 nM	–	0.9
E21 [6], 111.1 nM	–	0.957
E21 [6], 333.3 nM	–	0.927
E21 [6], 1000 nM	–	0.955
E21 [6], 3000 nM	–	0.877
E21 [13], 4.1 nM	0.484	–
E21 [13], 12.3 nM	0.616	–
E21 [13], 37 nM	0.756	–
E21 [13], 111.1 nM	0.906	–
E21 [13], 333.3 nM	0.649	–
E21 [13], 1000 nM	0.744	–
E21 [13], 3000 nM	1.09	–
E28 [4], 4.1 nM	–	1.02
E28 [4], 12.3 nM	–	1.19
E28 [4], 37 nM	–	0.916
E28 [4], 111.1 nM	–	0.949
E28 [4], 333.3 nM	–	1.1
E28 [4], 1000 nM	–	1.26
E28 [4], 3000 nM	–	0.731
E28 [11], 4.1 nM	0.928	–
E28 [11], 12.3 nM	1.13	–
E28 [11], 37 nM	1.26	–
E28 [11], 111.1 nM	0.901	–
E28 [11], 333.3 nM	0.775	–
E28 [11], 1000 nM	1.21	–
E28 [11], 3000 nM	1.55	–
E31 [7], 4.1 nM	–	0.889
E31 [7], 12.3 nM	–	0.903
E31 [7], 37 nM	–	0.826
E31 [7], 111.1 nM	–	0.961
E31 [7], 333.3 nM	–	0.894
E31 [7], 1000 nM	–	1.07
E31 [7], 3000 nM	–	0.875
E31 [14], 4.1 nM	0.818	–
E31 [14], 12.3 nM	0.955	–
E31 [14], 37 nM	1.02	–
E31 [14], 111.1 nM	0.782	–
E31 [14], 333.3 nM	0.838	–
E31 [14], 1000 nM	0.811	–
E31 [14], 3000 nM	0.874	–
E34 [3], 4.1 nM	–	0.974
E34 [3], 12.3 nM	–	0.829
E34 [3], 37 nM	–	0.841
E34 [3], 111.1 nM	–	0.884
E34 [3], 333.3 nM	–	0.928
E34 [3], 1000 nM	–	1
E34 [3], 3000 nM	–	0.889
E34 [10], 4.1 nM	3.48	–
E34 [10], 12.3 nM	1.19	–
E34 [10], 37 nM	0.943	–
E34 [10], 111.1 nM	1.13	–
E34 [10], 333.3 nM	0.621	–
E34 [10], 1000 nM	0.627	–
E34 [10], 3000 nM	0.693	–
E57 [1], 4.1 nM	–	0.882
E57 [1], 12.3 nM	–	0.903
E57 [1], 37 nM	–	0.919
E57 [1], 111.1 nM	–	0.922
E57 [1], 333.3 nM	–	1.02
E57 [1], 1000 nM	–	0.954
E57 [1], 3000 nM	–	0.85
E57 [8], 4.1 nM	0.989	–
E57 [8], 12.3 nM	0.918	–
E57 [8], 37 nM	0.681	–
E57 [8], 111.1 nM	0.66	–
E57 [8], 333.3 nM	0.538	–
E57 [8], 1000 nM	0.74	–
E57 [8], 3000 nM	1.04	–
FT3469 [2], 4.1 nM	–	0.763
FT3469 [2], 12.3 nM	–	0.995
FT3469 [2], 37 nM	–	0.811
FT3469 [2], 111.1 nM	–	0.832
FT3469 [2], 333.3 nM	–	0.955
FT3469 [2], 1000 nM	–	0.915
FT3469 [2], 3000 nM	–	0.649
FT3469 [9], 4.1 nM	0.889	–
FT3469 [9], 12.3 nM	2.05	–
FT3469 [9], 37 nM	1.22	–
FT3469 [9], 111.1 nM	3.24	–
FT3469 [9], 333.3 nM	0.832	–
FT3469 [9], 1000 nM	0.844	–
FT3469 [9], 3000 nM	1.47	–
